Reference: ChEMBL document CHEMBL3507680, “University of Dundee, Gates Library screen for HepG2 cell viability”

Assay: Human HepG2 cell viability assay in 384 well format
Type: toxicity, cell-based
Design: dose 125 nL, time 70.5 hour; cytotoxicity at 70.5 h: concentration not given beside the values
Settings: HepG2 cells, read-out: Inhibition

SMILES | cytotoxicity at 70.5 h [%]
Cc1noc(C)c1CN1CCOC2(CCCN(c3nncs3)C2)C1 (stereo not given) | -4.97
COc1c(C2CCCN2C(=O)c2ccc(C#N)cc2)c(C)nn1C (stereo not given) | -9.49
CN1CCN(Cc2cccnc2)C(=O)C12CCN(Cc1ccco1)CC2 | -8.43
CC(C)(C)c1cc(CN2CCOCC(O)C2)n[nH]1 (stereo not given) | 2.49
O=C1NCCCCC1Sc1nnc(C2CC2)n1C1CC1 (stereo not given) | -5.95
c1cc(-c2nc3c(c(NCCn4ccnn4)n2)CCNCC3)ccn1 | 0.89
CS(=O)(=O)Cc1nc(CN2CCC(C(F)(F)F)CC2)cs1 | -8.36
CN(C(=O)Nc1ccccn1)C1CCCN(c2ccccc2)C1=O (stereo not given) | 3.77
COc1cccc(CCCN2CCC(N(C)S(C)(=O)=O)CC2)c1 | 4.63
Cc1ccc2c(n1)N(CC(C)C)CCN(C(=O)Cc1ccccn1)C2 | -4.9
COCCN1C[C@@H]2[C@@H](OC)CCN(Cc3ccc(C)o3)[C@@H]2C1 | -1.05
Cc1noc(C)c1CN1CCCC2(CCN(C(=O)N3CCOCC3)C2)C1 (stereo not given) | -8.84
CCc1nn(C)c(Cl)c1CN1CCN(c2ccc(Cl)nn2)CC1 | 13.1
CN(CC(=O)N1CC(C)(C)[C@](O)(C2CC2)C1)Cc1cccnc1 | -3.42
Cn1cc(CN2CC[C@]3(C[C@H](OCc4ccccn4)CO3)C2)cn1 | -22.4
COc1ccc(S(=O)(=O)N2CCC[C@@H]3CN(C(=O)C4CC4)C[C@@H]32)cc1 | 50
CCN(Cc1ccc(F)cc1Cl)C1CCS(=O)(=O)C1 (stereo not given) | -19.3
Cc1n[nH]cc1CNC1(c2ccc(F)cc2)CCCC1 | -7.33
Cc1ccc(-c2nc(CC(=O)NCC3CCCOC3)cs2)o1 (stereo not given) | -0.602
COCc1csc(NC(=O)N2CCC(Cc3cnn(C)c3)C2)n1 (stereo not given) | -4.37
Cc1ccc([C@@H]2CN(C(=O)c3cc(C)no3)C[C@H]2NC(=O)C2CC2)cc1 | -6.47
CSCc1nc(CNC(=O)c2cnn(C(C)C)c2)cs1 | -11.2
COCCOC(=O)N1CCC(c2nccn2CC2CC2)CC1 | -4.36

SMILES | cytotoxicity at 70.5 h [%]
C(=C\c1ccccc1)/CNCC1CCc2nncn2C1 (stereo not given) | 5.32
Cc1cnn(CC2CCCN2C(=O)CCc2c(C)noc2C)c1 (stereo not given) | 12.1
NC(=O)c1csc(C(=O)N2CCCC(n3ccnc3)C2)c1 (stereo not given) | -8.21
CCC[C@H]1CN(Cc2ccc(N(C)C)nc2)C[C@@H]1NC(=O)CO | -6.62
Cc1c(CNCc2nn(-c3ccccc3)c3c2CCC3)cc(C#N)n1C | 4.96
CCN(CC)c1ncccc1CNCc1ccc(Cl)s1 | -7.77
O=C(Nc1cnc(C2CC2)nc1)N1CCCC1 | -1.33
COc1cc(Cl)c(C)cc1-n1nnc(C(=O)O)c1C | -2
Cc1cc(-c2cnn(CCNC(=O)CCn3cccn3)c2C2CC2)on1 | -3.81
CCCN(CCN(C)C)C(=O)Cc1cn2ccsc2n1 | 5.05
COc1cc2c(cc1CNC(Cc1cccs1)c1nccs1)OCCO2 (stereo not given) | -3.19
c1csc(CN2C[C@H]3CCC[C@@]3(COCC3CCOCC3)C2)n1 | 1.66
CN(C(=O)c1ccc(OCC(F)F)nc1)c1ccc2c(c1)CCO2 | -4.77
Cc1cccc(CN2CC3(CCN(C4CCOC4)CC3)OCC2=O)n1 (stereo not given) | 0.761
O=C(NC1CCOCC1)C1CC(=O)N(Cc2ccccn2)C1 (stereo not given) | -2.88
CC(CO)NCc1csc2c1CCCC2 (stereo not given) | 0.572
COCCCSc1ccc(NCc2cscn2)cc1 | -2.43
O=C(CSc1ccc2c(c1)OCCO2)NS(=O)(=O)c1cc(F)ccc1F | -7.36
Cn1nc(C(=O)N2CCOCC2)cc1C(=O)Nc1cc(Cl)cc(Cl)c1 | -0.911
CC(C)CN1CC(C(=O)NCCNc2ncccn2)CC1=O (stereo not given) | -0.397
CCc1nnc2n1CCN(C(=O)c1ccc3c(c1)nnn3C)C2 | -0.825
CC1(c2ncc(CN3CCSCC3)cn2)CCCCO1 (stereo not given) | -11.9
